Assay results as given in patent EP4467141A1, “PYRAZOLO-QUINOLINES AS SELECTIVE INHIBITORS OF GENOTOXIC STRESS-INDUCED IKK/NF- KB PATHWAYS FOR CANCER THERAPY” (Max-Delbrück-Centrum für Molekulare Medizin in der …, priority 2023, dated 2024).

Test system: p65 nuclear translocation
Assay: HCS counter-screen: TNFα-induced p65 nuclear translocation in U2-OS cells
Assay type: cell-based
Protocol: Fig.1: Identification of inhibitors specific for DNA damage-induced NF-κB activity. (A) Flowchart representing the high-throughput chemical library screening. A screen/counter-screen strategy was used by stimulating NF-κB in U2-OS cells with etoposide (50 µM for 90 min) and hits were counter-screened with TNFα (10 ng/ml for 20 min). Cells were pre-treated with compounds (10 µM) for 1 hour before stimulation, fixed, and percent p65 nuclear translocation measured by fluorescence microscopy. IC50 values were used for final selection. (B) Comparison of mean p65 nuclear translocation following either etoposide or TNFa stimulation after treatment with each counter-screened hit compound. Values were normalized to etoposide or TNFα positive controls. Specific inhibitors (red) of DNA damage-induced NF-κB signaling were defined by setting cut-off criteria (black line). […] (E) Western blot analysis (top) and quantification (bottom) of NF-κB subunit p65 phosphorylation (S536) following 1-hour pre-treatment with DMSO, MW01 (10 µM), or MW05 (10 µM), in unstimulated, after 90 min irradiation (IR, 20 Gy), or after 20 min TNFα (10 ng/mL) conditions in U2- OS cells. […]
To identify inhibitors that selectively prevent DNA damage-induced NF-κB activation, we established a high-throughput screening platform quantifying p65 nuclear translocation, an essential step in NF-κB activation (Hayden and Ghosh, 2008). […]

Row | Compound | TNFα stimulated IC50 of p65 nuclear translocation
1 | COc1ccc2c(c1OC)c(=O)n1c3ccc(O)cc3c3ccnc2c31 [MW01, 5-Hydroxy-10,11-dimethoxy-9H-benzo[c]indolo[3,2,1-ij][1,5]naphthyridin-9-one] | out of range
2 | COc1ccc2cc3c(N)nn(C(=O)c4cccc(N(C)C)c4)c3nc2c1 [MW05, (3-Amino-7-methoxypyrazolo[3,4-b]quinolin-1-yl)-[3-(dimethylamino)phenyl]methanone] | out of range
